Results as given in patent US20230012172A1, “COMPOSITIONS AND METHODS FOR TREATMENT OF PLATINUM-BASED CHEMOTHERAPEUTIC RESISTANT TUMORS” (The George Washington University, priority 2020, published 2023).
pIC50: −log10 of the molar value.

Key:
[1] = test system: IGROV1 CR cells; test: Cell viability assay (SRB) in IGROV1 CR cells; format: cell-based, human; conditions: for toxicity (cell viability): 150 nM, IGROVI CR cells
Description: (§1) Cell culture and resistance cell line establishment. IGROV1 cells, U2OS (HTB-96; ATCC), HEK293T (CRL-11268; ATCC) and SKOV3 cells (HTB-77; ATCC) were cultured at 37° C. in DMEM with 10% Fetal Bovine Serum (FBS). PEO1 (10032308; Sigma-Aldrich), PEO4 (10032309; Sigma-Aldrich), PEO14 (10032311; Sigma-Aldrich) and PE023 cells (10032313; Sigma-Aldrich) were cultured at 37° C. in RPMI-1640 with 10% FBS. OV90 (CRL-11732; ATCC) was cultured in medium containing 1:1 MCDB 105 (Sigma) and M199 (Sigma) supplemented with 10% FBS at 37 ° C. All the cells were cultured at in a humidified incubator with 5% CO2 atmosphere. Cisplatin resistant cell lines, including SKOV3 CR, IGROV1 CR and OV90 CR, were generated using an approach similar to that reported in Zhou et al., (2018) Oncogene 37, 3981-3997, the disclosure of which is incorporated herein in its entirety.
Cell viability assay. Cells were seeded at 3,000 cells/well in 96-well plates were treated with drugs, followed by incubation for 48 hours, after which cell viability was detected using Sulforhodamine B (SRB) assay (64). Absorbance at 510 nm was detected using a SpectraMax Reader (Molecular Devices) and analyzed with SoftMax Analysis Software (Molecular Devices). Combinational index (CI) values were calculated using CompuSyn software.

[2] = test system: JAK2; test: Cell-free kinase assay with JAK2 purified from treated cells, recombinant STAT3 substrate; format: biochemical; conditions: JAK2 purified from IGROV1 cells treated with inhibitor
Description: Phosphorylation of STAT3 at tyrosine 705 (Y705) by JAK2 is one of the most important and well established cytoplasmic functions of JAK2. To determine whether accumulation of JAK2 in nucleus by depleting SENP1 affected JAK2 cytoplasmic activity, phosphorylated STAT3 (pSTAT3 (Y705)) levels was evaluated in SENP1 depleted IGROV1 cells.
To this end, cell-free kinase assays were performed using JAK2 purified from cells treated with siSENP1 or UAMMC9.

[3] = target: T1, SENP1 (Homo sapiens, UniProt Q9P0U3); test: In vitro deSUMOylation assay with recombinant His-JAK2 and GST-SENP1; format: biochemical; design: made in house; host or cells: E. coli BL21 (DE3) for pET28a-JAK2; conditions: SUMOylated His-JAK2 incubated with GST-SENP1 and compound for 3 hours
T1 sequence (Q9P0U3 1-644): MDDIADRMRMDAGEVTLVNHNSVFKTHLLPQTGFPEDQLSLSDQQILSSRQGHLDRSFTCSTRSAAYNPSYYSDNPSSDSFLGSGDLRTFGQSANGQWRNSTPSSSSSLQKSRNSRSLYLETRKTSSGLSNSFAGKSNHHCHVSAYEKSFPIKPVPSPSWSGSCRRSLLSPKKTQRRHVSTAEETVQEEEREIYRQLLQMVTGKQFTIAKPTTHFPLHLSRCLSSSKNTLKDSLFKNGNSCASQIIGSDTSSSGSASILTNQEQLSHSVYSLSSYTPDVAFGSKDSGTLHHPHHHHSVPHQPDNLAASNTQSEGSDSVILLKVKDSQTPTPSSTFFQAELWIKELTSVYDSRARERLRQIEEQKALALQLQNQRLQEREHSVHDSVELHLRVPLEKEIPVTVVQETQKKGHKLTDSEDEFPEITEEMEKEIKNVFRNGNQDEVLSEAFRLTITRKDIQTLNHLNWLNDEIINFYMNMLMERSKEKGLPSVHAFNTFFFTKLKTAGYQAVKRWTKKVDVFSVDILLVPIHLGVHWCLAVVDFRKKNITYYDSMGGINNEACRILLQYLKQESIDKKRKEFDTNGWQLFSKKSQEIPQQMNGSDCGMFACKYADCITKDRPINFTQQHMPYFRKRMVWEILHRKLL
Description: To further determine whether SENP1 can directly deSUMOylate JAK2, in vitro deSUMOylation assays were performed by using purified recombinant His-JAK2 and GST-SENP1 proteins.
In vitro SUMOylation assay. The SUMOylation reactions were performed according to the manufacture's instruction (BML-UW8955-0001; ENZO). Briefly, 200 nM of purified HIS-JAK2 was suspended in reaction buffer (20 μl) containing Mg-ATP, SUMO E1, SUMO E2 and recombinant SUMOs. RanGAP1 (provided in the kit) was used as the substrate for positive control. The reaction was incubated at 37° C. for 60 minutes and terminated by using 20 μl of SDS loading buffer. […] The reactions were then subjected to Western blot to evaluate SUMOylation level.
Protein expression and purification. pET28a-JAK2 and its mutant was transformed in BL21 (DE3) E. coli cells by heat shot method at 42° C. and grown in Luria Broth (LB) at 37° C. E. coli cells were induced with 0.5 mM IPTG to induct protein expression. Cells were harvested by centrifugation at 5,000 g, 4° C. for 15 min and the pellet was resuspended in lysis buffer (20 mM Tris pH 7.9, 500 mM NaCl, 5 mM imidazole, 2 mM DTT and 1× protease inhibitor cocktail). Cells were then sonicated and centrifuged at 14,000 g, 4° C. for 15 min. 1 ml of Ni-NTA was added to the supernatant and incubated at 4° C. with end-to-end mixing for 2 hours and subjected to a column. The Ni-NTA resin was washed with 10 ml wash buffer (20 mM Tris pH 7.9, 250 mM NaCl, 15 mM Imidazole and 0.5 mM DTT) and eluted with 1 ml elution buffer (20 mM Tris pH 7.9, 250 mM NaCl and 1 M imidazole). The elute was then concentrated by using a protein concentrator (Thermo Scientific™ Pierce™) and resuspend in dialysis buffer (50 mM Tris pH 7.9, 50 mM NaCl, 2 mM DTT, and 10% glycerol). The purified protein was stored at −80° C. pGEX-4T1-SENP1 and its mutant were purified using following buffers: lysis buffer (1 mM DTT, and lx protease inhibitor cocktail, 800 mM NaCl, 5 mM EDTA, 50 mM Tris-pH8.0, 0.1% Triton x-100), wash buffer (800 mM NaCl, 5 mM EDTA, 50 mM Tris-pH8.0, 0.1% Triton x-100), elution buffer (40 mM glutathione, 800 mM NaCl, 5 mM EDTA, 50 mM Tris-pH8.0, 0.1% Triton x-100), dialysis buffer (50 mM Tris pH 7.9, 50 mM NaCl, 2 mM DTT, and 10% glycerol).

[4] = test system: SKOV3 CR cells; test: Cell viability assay (SRB) in SKOV3 CR cells; format: cell-based; conditions: for synergistic effects with cisplatin (combination index): SKOV3 CR cells
Description: as §1, with “Sigma-Aldrich) and PE023 cells (10032313;” left out, “ATCC) was cultured in medium containing 1:1 MCDB 105 (Sigma) and M199 (Sigma) supplemented with 10% FBS at 37 ° C.” left out, “entirety. Cell viability assay. Cells were seeded at 3,000 cells/well in 96-well plates were treated with drugs, followed by incubation for 48 hours, after which cell viability was detected using Sulforhodamine B (SRB) assay (64). Absorbance at 510 nm was detected using a SpectraMax Reader (Molecular Devices) and analyzed with SoftMax Analysis Software (Molecular Devices). Combinational index (CI) values were calculated using CompuSyn software.” for “entirety.”

[5] = test system: SENP1; test: SENP1 protein and JAK2 SUMOylation in IGROV1 cells treated with cisplatin (Western blot); format: cell-based, human; conditions: time and dose dependent
Description: (§2) The SENP1 protein level was increased while JAK2 SUMOylation was decreased correspondingly in IGROV1 cells treated with cisplatin in a time and dose dependent manner (FIGS. 4F and 4G). To further test the SENP1 induction by platinum drugs in vivo, SENP1 protein levels were measured in IGROV1 xenograft tumors using immunohistochemistry (IHC) in implanted immunodeficient nude mice that were treated with carboplatin at 20 mg/kg or 60 mg/kg after tumor was developed.

[6] = test system: SENP1; test: SENP1 IHC in IGROV1 xenograft tumors of carboplatin-treated mice; format: in vivo, immunodeficient nude mice; conditions: carboplatin 20 mg/kg or 60 mg/kg
Description: as §2
Immunohistochemistry. Immunohistochemical (IHC) staining and scoring were performed similar to that previously described n Zhou et al., (2018) Oncogene 37, 3981-3997, the disclosure of which is incorporated herein in its entirety. The quantification of immunohistochemical staining was scored blindly at least by two independent observers.

`CC1CCC2(C(=O)NCC(=O)N(C)CCO)CCC3(C)C(=CCC4C5(C)CCC(O)C(C)(C)C5CCC43C)C2C1C` (stereo not drawn) [UAMMC9] was tested, and the “decrease of the IC50 of cisplatin” value ([1]; 150 nM UAMMC9, IGROVI CR cells) was 4.19 fold.
For `C[C@@H]1CC[C@]2(C(=O)OCCNC(=O)OC(C)(C)C)CC[C@]3(C)C(=CCC4[C@@]5(C)CC[C@H](O)C(C)(C)C5CC[C@]43C)C2[C@H]1C` (stereo partly drawn) [UAMMC3], the “toxicity (cell viability)” value [1] was “higher toxicity”.
With `Cc1cnc(Nc2ccc(OCCN3CCCC3)cc2)nc1Nc1cccc(S(=O)(=O)NC(C)(C)C)c1` [TG101348] the “phosphorylation of recombinant substrate STAT3 proteins by purified JAK2” value [2] was “decreased phosphorylation”.
For `C[C@@H]1CC[C@]2(C(=O)OCC(=O)NCCO)CC[C@]3(C)C(=CCC4[C@@]5(C)CC[C@H](O)C(C)(C)C5CC[C@]43C)C2[C@H]1C` (stereo partly drawn) [UAMMC5], the “toxicity (cell viability)” value [1] was “higher toxicity”.
`C[C@@H]1CC[C@]2(C(=O)O)CC[C@]3(C)C(=CC[C@@H]4[C@@]5(C)C[C@@H](O)[C@H](O)C(C)(C)[C@@H]5CC[C@]43C)[C@@H]2[C@]1(C)O` [tormentic acid] was tested, and the “inhibited SENP1 activity in vitro” value [3] was “inhibited” and the “synergistic effects with cisplatin (combination index)” value [4] was “synergistic effects”.
`CC1(C)CC[C@]2(C(=O)O)[C@H](O)C[C@]3(C)C(=CC[C@@H]4[C@@]5(C)CC[C@H](O)C(C)(C)[C@@H]5CC[C@]43C)[C@H]2C1` [echinocyslic acid] was tested, and the “synergistic effects with cisplatin (combination index)” value [4] was “synergistic effects”.
With `N.N.[Cl][Pt][Cl]` [Cisplatin, cisplatin] the pIC50 ([1]; cisplatin alone or with 150 nM UAMMC, read-out: Cisplatin IC50 with 150 nM of UAMMCs on IGROV1 CR cells) was 4.85, the pIC50 ([4]; cisplatin alone or with 150 nM UAMMC, read-out: Cisplatin IC4 with 150 nM of UAMMCs on SKOV3 CR cells, IC50) was 4.91 and the “JAK2 SUMOylation” value [5] was “decreased”. For the same compound, the SENP1 protein level [5] was “increased”.
For `C[C@@H]1CC[C@]2(C(=O)O)CC[C@]3(C)C(=CC[C@@H]4[C@@]5(C)CC[C@H](O)C(C)(C)[C@@H]5CC[C@]43C)[C@@H]2[C@]1(C)O` [pomolic acid], the “inhibited SENP1 activity in vitro” value [3] was “inhibited” and the “synergistic effects with cisplatin (combination index)” value [4] was “synergistic effects”.
With `C[C@H]1[C@H](C)CC[C@]2(C(=O)O)CC[C@]3(C)C(=CC[C@@H]4[C@@]5(C)C[C@@H](O)[C@H](O)C(C)(C)[C@@H]5CC[C@]43C)[C@H]12` [corosolicin acid] the “synergistic effects with cisplatin (combination index)” value [4] was “synergistic effects”.
`N.N.O=C([O-])C1(C(=O)[O-])CCC1.[Pt+2]` [Carboplatin, carboplatin] was tested, and the “SENP1 expression in ovarian tumors (IHC)” value [6] was “significant increase”.
